# From US8445492B2, “Method for inhibiting growth of cancer cells and cell telomere and diseases of cell proliferation by using heteroannelated anthraquinone derivative compounds” (National Defense Medical Center, priority 2008, dated 2013)
# Like-named read-outs stand apart in the source and are kept apart here.
# Assays:
# NCI-H460 [1] = tested on: NCI-H460
# CCRF-CEM [2] = test: cells; details: Homo sapiens
# HOP-62 [3] = test: in vitro test at 1.0×10^−5 M, Non-small cell lung cancer cell; format: cell-based; details: 1.0×10^−5 molal concentration (M)
# DU-145 [4] = tested on: DU-145
# HL-60(TB) [5] = tested on: HL-60(TB)
# RPMI-8226 [6] = tested on: RPMI-8226
# HCC-2998 = test: in vitro test at 1.0×10^−5 M, Colorectal cancer cell; format: cell-based; details: 1.0×10^−5 molal concentration (M)
# NCI-H23 [7] = test: cells; details: Homo sapiens, NCI-H23
# EKVX [8] = test: cells; details: Homo sapiens
# A549/ATCC = test: cells; details: Homo sapiens, A549
# PC-3 [9] = test: cells; details: Homo sapiens, PC-3
# K-562 [10] = tested on: K-562
# HOP-92 [11] = tested on: HOP-92
# HL-60(TB) [12] = test: cells; details: Homo sapiens, HL-60
# NCI-H522 [13] = tested on: NCI-H522
# MOLT-4 [14] = test: cells; details: Homo sapiens, MOLT-4
# K-562 [15] = test: cells; details: Homo sapiens, K562
# NCI-H23 [16] = tested on: NCI-H23
# LOX IMV1 = test: in vitro test at 1.0×10^−5 M, Skin cancer cell; format: cell-based; details: 1.0×10^−5 molal concentration (M)
# NCI-H226 = test: cells; details: Homo sapiens, NCI-H226
# MOLT-4 [17] = tested on: MOLT-4
# PC-3 [18] = tested on: PC-3
# NCI-H522 [19] = test: cells; details: Homo sapiens, NCI-H522
# HOP-62 [20] = test: cells; details: Homo sapiens, HOP-62
# HS 578T = test: in vitro test at 1.0×10^−5 M, Breast cancer cell; format: cell-based; details: 1.0×10^−5 molal concentration (M)
# RPMI-8226 [21] = test: cells; details: Homo sapiens, RPMI-8226
# HOP-92 [22] = test: cells; details: Homo sapiens, HOP-92
# DU-145 [23] = test: cells; details: Homo sapiens, DU-145
# EKVX [24] = tested on: EKVX
# NCI-H460 [25] = test: cells; details: Homo sapiens, NCI-H460
# CCRF-CEM [26] = tested on: CCRF-CEM
# [27] = tested on: different cancer cell lines; test: in vitro test at 1.0×10^−5 M, summary over the cell lines; format: cell-based; design: unit not given here; details: 1.0×10^−5 molal concentration (M)
smiles,measurement,setting,value
"CCc1nc2ccc3c(c2[nH]1)C(=O)c1ccccc1C3=O [No. 4, 2-Ethyl-1(3)H-anthra[1,2-d]imidazole-6,11-dione]",Percent Growth,NCI-H460 [1]; Log10 Concentration −4.0,2%
same,Percent Growth,NCI-H460 [1]; Log10 Concentration −5.0,25%
same,Percent Growth,NCI-H460 [1]; Log10 Concentration −6.0,74%
same,Percent Growth,NCI-H460 [1]; Log10 Concentration −7.0,82%
same,Percent Growth,NCI-H460 [1]; Log10 Concentration −8.0,84%
same,TGI,NCI-H460 [1]; NCI-H460,>1.00E−4
same,GI50,CCRF-CEM [2],10.9 µM
same,inhibition effect on cancer cell line (Table 2 value),HOP-62 [3],97.73
same,TGI,DU-145 [4]; DU-145,>1.00E−4
same,Percent Growth,DU-145 [4]; Log10 Concentration −4.0,24%
same,Percent Growth,DU-145 [4]; Log10 Concentration −5.0,37%
same,Percent Growth,DU-145 [4]; Log10 Concentration −6.0,88%
same,Percent Growth,DU-145 [4]; Log10 Concentration −7.0,98%
same,Percent Growth,DU-145 [4]; Log10 Concentration −8.0,98%
same,TGI,HL-60(TB) [5]; HL-60(TB),>1.00E−4
same,Percent Growth,HL-60(TB) [5]; Log10 Concentration −4.0,19%
same,Percent Growth,HL-60(TB) [5]; Log10 Concentration −5.0,43%
same,Percent Growth,HL-60(TB) [5]; Log10 Concentration −6.0,101%
same,Percent Growth,HL-60(TB) [5]; Log10 Concentration −7.0,100%
same,Percent Growth,HL-60(TB) [5]; Log10 Concentration −8.0,100%
same,Percent Growth,RPMI-8226 [6]; Log10 Concentration −4.0,−12%
same,Percent Growth,RPMI-8226 [6]; Log10 Concentration −5.0,12%
same,Percent Growth,RPMI-8226 [6]; Log10 Concentration −6.0,73%
same,Percent Growth,RPMI-8226 [6]; Log10 Concentration −7.0,81%
same,Percent Growth,RPMI-8226 [6]; Log10 Concentration −8.0,97%
same,TGI,RPMI-8226 [6]; RPMI-8226,3.21E−5
same,inhibition effect on cancer cell line (Table 2 value),HCC-2998,67.67
same,GI50,NCI-H23 [7],9.17 µM
same,GI50,EKVX [8],1.6 µM
same,GI50,A549/ATCC,17.1 µM
same,GI50,PC-3 [9],14.4 µM
same,TGI,K-562 [10]; K-562,>1.00E−4
same,Percent Growth,K-562 [10]; Log10 Concentration −4.0,48%
same,Percent Growth,K-562 [10]; Log10 Concentration −5.0,63%
same,Percent Growth,K-562 [10]; Log10 Concentration −6.0,87%
same,Percent Growth,K-562 [10]; Log10 Concentration −7.0,92%
same,Percent Growth,K-562 [10]; Log10 Concentration −8.0,94%
same,TGI,HOP-92 [11]; HOP-92,>1.00E−4
same,Percent Growth,HOP-92 [11]; Log10 Concentration −4.0,23%
same,Percent Growth,HOP-92 [11]; Log10 Concentration −5.0,48%
same,Percent Growth,HOP-92 [11]; Log10 Concentration −6.0,64%
same,Percent Growth,HOP-92 [11]; Log10 Concentration −7.0,80%
same,Percent Growth,HOP-92 [11]; Log10 Concentration −8.0,93%
same,GI50,HL-60(TB) [12],7.53 µM
same,Percent Growth,NCI-H522 [13]; Log10 Concentration −4.0,32%
same,Percent Growth,NCI-H522 [13]; Log10 Concentration −5.0,54%
same,Percent Growth,NCI-H522 [13]; Log10 Concentration −6.0,87%
same,Percent Growth,NCI-H522 [13]; Log10 Concentration −7.0,88%
same,Percent Growth,NCI-H522 [13]; Log10 Concentration −8.0,89%
same,TGI,NCI-H522 [13]; NCI-H522,>1.00E−4
same,GI50,MOLT-4 [14],9.31 µM
same,GI50,K-562 [15],78.3 µM
same,Percent Growth,NCI-H23 [16]; Log10 Concentration −4.0,21%
same,Percent Growth,NCI-H23 [16]; Log10 Concentration −5.0,49%
same,Percent Growth,NCI-H23 [16]; Log10 Concentration −6.0,74%
same,Percent Growth,NCI-H23 [16]; Log10 Concentration −7.0,88%
same,Percent Growth,NCI-H23 [16]; Log10 Concentration −8.0,92%
same,TGI,NCI-H23 [16]; NCI-H23,>1.00E−4
same,inhibition effect on cancer cell line (Table 2 value),LOX IMV1,39.98
same,GI50,NCI-H226,20.8 µM
same,Percent Growth,MOLT-4 [17]; Log10 Concentration −4.0,−1%
same,Percent Growth,MOLT-4 [17]; Log10 Concentration −5.0,49%
same,Percent Growth,MOLT-4 [17]; Log10 Concentration −6.0,93%
same,Percent Growth,MOLT-4 [17]; Log10 Concentration −7.0,96%
same,Percent Growth,MOLT-4 [17]; Log10 Concentration −8.0,98%
same,TGI,MOLT-4 [17]; MOLT-4,9.51E−5
same,Percent Growth,PC-3 [18]; Log10 Concentration −4.0,29%
same,Percent Growth,PC-3 [18]; Log10 Concentration −5.0,54%
same,Percent Growth,PC-3 [18]; Log10 Concentration −6.0,93%
same,Percent Growth,PC-3 [18]; Log10 Concentration −7.0,100%
same,Percent Growth,PC-3 [18]; Log10 Concentration −8.0,96%
same,TGI,PC-3 [18]; PC-3,>1.00E−4
same,GI50,NCI-H522 [19],15.4 µM
same,GI50,HOP-62 [20],44.2 µM
same,inhibition effect on cancer cell line (Table 2 value),HS 578T,−18.58
same,GI50,RPMI-8226 [21],2.42 µM
same,GI50,HOP-92 [22],7.38 µM
same,GI50,DU-145 [23],5.62 µM
same,TGI,EKVX [24]; EKVX,9.43E−5
same,Percent Growth,EKVX [24]; Log10 Concentration −5.0,15%
same,Percent Growth,EKVX [24]; Log10 Concentration −6.0,59%
same,Percent Growth,EKVX [24]; Log10 Concentration −7.0,82%
same,Percent Growth,EKVX [24]; Log10 Concentration −8.0,88%
same,GI50,NCI-H460 [25],3.07 µM
same,TGI,CCRF-CEM [26]; CCRF-CEM,>1.00E−4
same,Percent Growth,CCRF-CEM [26]; Log10 Concentration −4.0,15%
same,Percent Growth,CCRF-CEM [26]; Log10 Concentration −5.0,51%
same,Percent Growth,CCRF-CEM [26]; Log10 Concentration −6.0,95%
same,Percent Growth,CCRF-CEM [26]; Log10 Concentration −7.0,94%
same,Percent Growth,CCRF-CEM [26]; Log10 Concentration −8.0,103%
same,Mean,[27],58.42
